In patent US20120003661A1, “METHODS AND DEVICES FOR THE SELECTIVE DETECTION OF MICROORGANISMS” (C3 JIAN, INC., priority 2010, published 2012):
Entries after “also recorded” stand apart in the source; their conditions may differ. Where two headings read alike, the source gives them in different places.

Test system: bacteria, fungi, and/or yeasts
Type: binding
[1] = microorganism(s) the targeting peptide binds, as listed in Table 2
[2] = microorganism(s) listed as target(s) of the targeting peptide, wrapped target lists given cell by cell
[3] = microorganism(s) that the targeting peptide binds, as listed in Table 2

## 1T-242 (KQVQNTTLIICGTVLLGILFKSYLKSQKSV)
[1]
  Target(s): F. nucleatum, S. sanguinis

## 1T-252 (MKKNLKRFYALVLGFIIGCLFVSILIFIGY)
[2]
  Target(s): F. nucleatum, S. sanguinis

## PF-C045 (FREGMGWPLSNEGSPTAPLPKHRNQV)
[3]
  Target(s): A. naeslundii, T. denticola

## 1T-129 (YDKYIKYLSIQPPFIVYFI)
[1]
  Target(s): A. naeslundii, P. gingivalis, S. epidermidis,; also recorded: S. gordonii, S. mitis,; also recorded: S. mutans, S. oralis, S. salivarious,; also recorded: S. sanguinis

## 1T-199 (RAGRIKKLSQKEAEPFEN)
[1]
  Target(s): S. sanguinis

## 1T-267 (RIKEERKNRSYKFFIWRLFDEKTGFI)
[2]
  Target(s): A. naeslundii, F. nucleatum, P. gingivalis,; also recorded: T. denticola, S. mitis,; also recorded: S. mutans, S. oralis, S. sanguinis

## PF-056 (AEQLFGKQKQRGVDLFLNRLTIILSILFFVLMICISYLGM)
[2]
  Target(s): S. epidermidis, M. luteus, P. mirabilis,; also recorded: E. coli, P. aeruginosa,; also recorded: C. albicans, MRSA, S. pneumoniae,; also recorded: E. faecalis, C. jeikeium

## PF-158 (VRLESRPADLPE)
[2]
  Target(s): S. epidermidis

## PF-071 (HCVIGNVVDIANLLKRRAVYRDIADVIKMR)
[2]
  Target(s): S. epidermidis, E. coli, P. aeruginosa,; also recorded: C. albicans, MRSA,; also recorded: S. pneumoniae, E. faecalis, C. jeikeium,; also recorded: C. jejuni

## 1T-7 (SQRIIEPVKSPQPYPGFSVS)
[1]
  Target(s): M. xanthus

## 1T-207 (SPLEKYGTGSMTALTFLLGCCLLVLSKKSR)
[1]
  Target(s): F. nucleatum, S. sanguinis

## 1T-293 (HVEDCFLLSNARTTAIHGRANPARGEPRTRSE)
[2]
  Target(s): A. naeslundii, F. nucleatum, P. gingivalis,; also recorded: S. epidermidis, S. gordonii,; also recorded: S. mitis, S. mutans, S. oralis,; also recorded: S. salivarious, S. sanguinis

## PF-C290 (GNVHPESDFHNLIQFIKTFLYFTIFFKYFL)
[3]
  Target(s): A. naeslundii, F. nucleatum, P. gingivalis,; also recorded: S. mutans, T. denticola

## 1T-281 (KYEKLTKENLFIRNSGNMCVFIYFLFFG)
[2]
  Target(s): A. naeslundii, F. nucleatum, P. gingivalis,; also recorded: S. epidermidis, S. gordonii,; also recorded: S. mitis, S. mutans, S. oralis,; also recorded: S. salivarious, S. sanguinis

## 1T-131 (DEVWKMLGI)
[1]
  Target(s): A. naeslundii, F. nucleatum, P. gingivalis,; also recorded: T. denticola, S. gordonii,; also recorded: S. mitis, S. mutans, S. oralis,; also recorded: S. salivarious, S. sanguinis

## PF-149 (GKVSVLTRVPRSLGGAPANQ)
[2]
  Target(s): S. epidermidis, M. luteus, E. coli,; also recorded: MRSA, C. jeikeium

## PF-S023 (MAEDERRALKRRTNRGRTRTRKRITV)
[3]
  Target(s): S. epidermidis, MRSA

## 1T-32 (VSFLAGWLCLGLAAWRLGNA)
[1]
  Target(s): S. mutans

## PF-123 (TTRPQVAEDRQLDDALKETFPASDPISP)
[2]
  Target(s): M. luteus, E. coli

## 1T-46 (FSFKQRVMFRKEVERLR)
[1]
  Target(s): S. aureus, S. epidermidis, C. jeikeium,; also recorded: C. xerosis, C. striatum,; also recorded: P. aeruginosa

## PF-W (FIDSFIRSF)
[3]
  Target(s): S. mutans

## 1T-101 (RLRVGRATDLPLTSFAVGVVRNLPDAPAH)
[1]
  Target(s): A. naeslundii, P. gingivalis, S. epidermidis,; also recorded: S. gordonii, S. mitis,; also recorded: S. mutans, S. oralis, S. sanguinis

## PF-008 (MIEIGSIAYLNGGSKKYNHILNQENR)
[2]
  Target(s): S. epidermidis, M. luteus, MRSA,; also recorded: C. jejuni

## 1T-221 (DIGRIIGKKGRTITAIRSIVYSVPTQGKKVRLVIDEK)
[1]
  Target(s): A. naeslundii, F. nucleatum, P. gingivalis,; also recorded: S. epidermidis, S. gordonii,; also recorded: S. mitis, S. mutans, S. oralis,; also recorded: S. salivarious, S. sanguinis

## 1T-257 (IILAKAADLAEIERIISEDPFKINEIANYDIIEFCPTKSSKAFEKVLK)
[2]
  Target(s): A. naeslundii, F. nucleatum, P. gingivalis,; also recorded: S. epidermidis, S. gordonii,; also recorded: S. mitis, S. mutans, S. oralis,; also recorded: S. salivarious, S. sanguinis

## 1T-24 (EEAEEKLAEVSQAVKRLVR)
[1]
  Target(s): P. aeruginosa

## 1T-45 (WTKPSFTDLRLGFEVTLYFANR)
[1]
  Target(s): S. aureus, S. epidermidis, C. striatum,; also recorded: P. aeruginosa

## PF-C065 (DEERYSDSYFLKEKVFYLILALFLILFHQKYLYFLEIITI)
[3]
  Target(s): A. naeslundii, F. nucleatum, P. gingivalis,; also recorded: S. mutans

## PF-051 (RFFNFEIKKSTKVDYVFAHVDLSDV)
[2]
  Target(s): C. albicans hyphae; also recorded: S. epidermidis, M. luteus, P. aeruginosa,; also recorded: C. albicans, MRSA,; also recorded: S. pneumoniae, E. faecalis

## PF-164 (EEVSRALAGIGLGLGCRIG)
[2]
  Target(s): S. epidermidis, M. luteus, E. coli,; also recorded: C. jeikeium

## 1T-148 (IVELDDTTILERALSMLGEANA)
[1]
  Target(s): A. naeslundii, F. nucleatum, P. gingivalis,; also recorded: T. denticola, S. gordonii,; also recorded: S. mitis, S. mutans, S. oralis,; also recorded: S. salivarious, S. sanguinis

## TT-305 (ARNALNMRDVPVDAAIIGIIDGMDEE)
[2]
  Target(s): F. nucleatum

## 1T-145 (VEAGKRNISLENIEKISKGLGISISELFKYIEEGEDKIG)
[1]
  Target(s): S. mitis, S. mutans, S. oralis

## PF-C281 (KKEKLLTAIRLQHRAEIRGYFTIFFLFFRI)
[3]
  Target(s): A. naeslundii, F. nucleatum, P. gingivalis,; also recorded: S. mutans, T. denticola

## 1T-15 (DVILRVEAQ)
[2]
  Target(s): yeast and hyphal forms
[1]
  Target(s): S. mutans

## TT-310 (TKLKKNNKLLSAKKENTLHTKDK)
[2]
  Target(s): F. nucleatum,

## PF-131 (RRAAARTKGNRR)
[2]
  Target(s): S. epidermidis, E. coli, MRSA, C. jeikeium

## PF-027 (HNARKYLEFISQKIDGDKLTKEDSL)
[2]
  Target(s): M. luteus, MRSA, E. faecalis, C. jejuni

## 1T-157 (RRFRKTTENREKSKNKKAVLGLSTTSTASY)
[1]
  Target(s): A. naeslundii, F. nucleatum, P. gingivalis,; also recorded: T. denticola, S. gordonii,; also recorded: S. mitis, S. mutans, S. oralis,; also recorded: S. salivarious, S. sanguinis

## PF-784 (MAMTTVDNIVGLVIAVALMAFLFAALLFPEKF)
[3]
  Target(s): Mycobacteria spp.

## PF-143 (LSPRPIIVSRRSRADNNNDWSR)
[2]
  Target(s): S. epidermidis, MRSA, C. jeikeium

## PF-165 (GPVSVVASLRRGTTVQRHSQNNHNKGKP)
[2]
  Target(s): MRSA, C. jejuni

## PF-136 (LRGRVGRITACGYPP)
[2]
  Target(s): S. epidermidis, M. luteus, P. mirabilis,; also recorded: E. coli, MRSA, E. faecalis,; also recorded: C. jeikeium, C. jejuni, M. smegmatis

## 1T-93 (AMRSVNQA)
[1]
  Target(s): S. epidermidis, S. gordonii, S. mitis,; also recorded: S. mutans, S. oralis, S. sanguinis

## PF-151 (EEYPARVPLSGEDVTEARRH)
[2]
  Target(s): S. epidermidis, MRSA, E. faecalis,; also recorded: C. jeikeium

## 1T-81 (AIATGLDIVDGKFDGYLWA)
[1]
  Target(s): S. pneumoniae

## 1T-154 (YFSFLEIVGMARR)
[1]
  Target(s): P. gingivalis

## 1T-168 (ELHRIMSTEKIGAVTKMNFDTAPIMSILPIDIYPKEVGIGS)
[1]
  Target(s): A. naeslundii, F. nucleatum, P. gingivalis,; also recorded: S. epidermidis, S. gordonii,; also recorded: S. mitis, S. mutans, S. oralis,; also recorded: S. salivarious, S. sanguinis

## 1T-99 (MKAWLGQ)
[1]
  Target(s): S. gordonii, S. mitis, S. mutans,; also recorded: S. oralis, S. sanguinis

## 1T-51 (GKPKRMPAEFIDGYGQALLAGA)
[1]
  Target(s): S. aureus, P. aeruginosa

## 1T-219 (RNINVSATFITEKSLV)
[1]
  Target(s): S. sanguinis

## 1T-269 (PLYVAAVEKINTAKKH)
[2]
  Target(s): F. nucleatum, S. mutans, S. oralis,; also recorded: S. sanguinis

## 1T-176 (PVGDIMSGFLRGANQPRFLLDHISFGS)
[1]
  Target(s): A. naeslundii, P. gingivalis, S. epidermidis,; also recorded: S. gordonii, S. mitis,; also recorded: S. mutans, S. oralis, S. salivarious,; also recorded: S. sanguinis

## PF-011 (MFCYYKQHKGDNFSIEEVKNIIADNEMKVN)
[2]
  Target(s): M. luteus, E. coli, P. aeruginosa,; also recorded: S. pneumoniae, C. jeikeium

## 1T-276 (ILTLLILGSIGFFILKIKLKLGRF)
[2]
  Target(s): A. naeslundii, F. nucleatum, P. gingivalis,; also recorded: S. epidermidis, S. gordonii,; also recorded: gordonii, S. mitis, S. mutans, S. oralis,; also recorded: S. sanguinis

## PF-036 (ILNRLSRIVSNEVTSLIYSLK)
[2]
  Target(s): S. epidermidis, M. luteus, P. mirabilis,; also recorded: E. coli, C. albicans,; also recorded: MRSA, S. pneumoniae, C. jejuni

## PF-S015 (IENLERGARRPP)
[3]
  Target(s): S. epidermidis, MRSA, C. jeikeium

## 1T-188 (HRKDVYKK)
[1]
  Target(s): S. sanguinis

## 1T-107 (SPVPRFTAVGGVSRGSP)
[1]
  Target(s): A. naeslundii, S. epidermidis, S. gordonii,; also recorded: S. mitis, S. mutans, S. oralis,; also recorded: S. salivarious, S. sanguinis

## PF-C062 (PLARATEVVATLFIICSLLLYLTR)
[3]
  Target(s): A. naeslundii, F. nucleatum, P. gingivalis,; also recorded: S. mutans, T. denticola

## PF-797 (WYYFDNNGYM)
[3]
  Target(s): S. mutans

## 1T-150 (YINRRLKKAFSDADIKEAPAEFYEELRRVQYV)
[1]
  Target(s): A. naeslundii, F. nucleatum, P. gingivalis,; also recorded: T. denticola, S. gordonii,; also recorded: S. mitis, S. mutans, S. oralis,; also recorded: S. salivarious, S. sanguinis

## PF-C120 (ASLSTMTFKVMELKELIILLCGLTMLMIQTEFV)
[3]
  Target(s): A. naeslundii, F. nucleatum, P. gingivalis,; also recorded: S. mutans, T. denticola

## 1T-58 (CDDLHALERAGKLDALLSA)
[1]
  Target(s): P. aeruginosa

## PF-055 (GHVFNGNNKRNL)
[2]
  Target(s): S. mutans

## 1T-183 (PLRSFVAEKAEHAFRVVRIADFDFGHS)
[1]
  Target(s): A. naeslundii, F. nucleatum, P. gingivalis,; also recorded: S. epidermidis, S. gordonii,; also recorded: S. mitis, S. mutans, S. oralis,; also recorded: S. salivarious, S. sanguinis

## 1T-285 (FFPYYLADFYKQLKFLNEYQTKNKDKVVEFK)
[2]
  Target(s): A. naeslundii, F. nucleatum, P. gingivalis,; also recorded: S. gordonii, S. mitis,; also recorded: S. mutans, S. oralis, S. salivarious,; also recorded: S. sanguinis

## PF-009 (SKKYNHILNQENR)
[2]
  Target(s): yeast and hyphal forms; also recorded: M. luteus, P. mirabilis, C. albicans

## 1T-94 (DQVAHSGDMLVQARRRDS)
[1]
  Target(s): S. mitis, S. mutans, S. oralis

## 1T-104 (RAVAAHLQGRHHGHQVRRQRHGQR)
[1]
  Target(s): S. mitis

## 1T-192 (ILVLLALQVELDSKFQY)
[1]
  Target(s): S. sanguinis

## PF-C142 (DFPPLSFFRRRFHAYTAPIDNFFGANPF)
[3]
  Target(s): A. naeslundii, F. nucleatum, P. gingivalis,; also recorded: S. mutans, T. denticola

## 1T-109 (VTTNVRQGAGS)
[1]
  Target(s): A. naeslundii, S. epidermidis, S. gordonii,; also recorded: S. mitis, S. mutans, S. oralis,; also recorded: S. salivarious, S. sanguinis
